From ChEMBL document CHEMBL4229452, “Expanding chemical space of DNA-binding molecules with three base-binding units” (Bioorg Med Chem Lett, 2018) come the findings set out here.

Assay type in all cases: nucleic-acid assay
Experiment [1] relates to dsDNA. The experiment in a line: Binding affinity to 5'-(CTAA CGG AATG)-3'/5'-(CATT CGG TTAG)-3' duplex DNA (unknown origin) assessed as change in melting temperature at 20 uM by UV-spectrophotometric method.
Experiment [2] concerns dsDNA. The experiment is described as follows: Binding affinity to 5'-(CTAA GGC AATG)-3'/5'-(CATT GGC TTAG)-3' duplex DNA (unknown origin) assessed as change in melting temperature at 20 uM by UV-spectrophotometric method.
Experiment [3] deals with dsDNA. The experiment in a line: Binding affinity to 5'-(CTAA CGG AATG)-3'/5'-(CATT CGG TTAG)-3' duplex DNA (unknown origin) assessed as apparent association […] constant at 60 uM by isothermal titration calorimetric method.
The test system of experiment [4] is dsDNA. The experiment is described as follows: Binding affinity to 5'-(CTAA CGG AATG)-3'/5'-(CATT CGG TTAG)-3' duplex DNA (unknown origin) at 7.5 uM by fluorescence titration method.
Experiment [5] deals with dsDNA. The experiment is described as follows: Binding affinity to 5'-(CTAA GGC AATG)-3'/5'-(CATT GGC TTAG)-3' duplex DNA (unknown origin) at 7.5 uM by fluorescence titration method.
The test system of experiment [6] is dsDNA. The experiment in a line: Binding affinity to 5'-(CTAA CGG AATG)-3'/5'-(CATT GGC TTAG)-3' duplex DNA (unknown origin) assessed as melting temperature at 5 uM by fluorimetric method.
In experiment [7] the test system is dsDNA. The experiment in a line: Binding affinity to 5'-(CTAA CGA AATG)-3'/5'-(CATT GGT TTAG)-3' duplex DNA (unknown origin) assessed as melting temperature at 5 uM by fluorimetric method.
Experiment [8] concerns dsDNA. The experiment in a line: Binding affinity to 5'-(CTAA CGT AATG)-3'/5'-(CATT GGA TTAG)-3' duplex DNA (unknown origin) assessed as melting temperature at 5 uM by fluorimetric method.
The test system of experiment [9] is dsDNA. The experiment in a line: Binding affinity to 5'-(CTAA GGC AATG)-3'/5'-(CATT CGG TTAG)-3' duplex DNA (unknown origin) assessed as melting temperature at 5 uM by fluorimetric method.
The test system of experiment [10] is dsDNA. The experiment is described as follows: Binding affinity to 5'-(CTAA GGA AATG)-3'/5'-(CATT CGT TTAG)-3' duplex DNA (unknown origin) assessed as melting temperature at 5 uM by fluorimetric method.
Experiment [11] has as its system dsDNA. The experiment in a line: Binding affinity to 5'-(CTAA GGT AATG)-3'/5'-(CATT CGA TTAG)-3' duplex DNA (unknown origin) assessed as melting temperature at 5 uM by fluorimetric method.
In experiment [12] the test system is dsDNA. The experiment is described as follows: Binding affinity to 5'-(CTAA CGG AATG)-3'/5'-(CATT CGG TTAG)-3' duplex DNA (unknown origin) at < 10 uM by fluorescence titration method.
Experiment [13] has as its system dsDNA. The experiment in a line: Binding affinity to 5'-(CTAA GGC AATG)-3'/5'-(CATT GGC TTAG)-3' duplex DNA (unknown origin) at < 10 uM by fluorescence titration method.

Calls of active or inactive are those of the source. No cut-off for these calls is given here.

As a reminder, the ΔTm is the shift of the melting midpoint relative to a reference. As usually defined, the Tm is the temperature at the midpoint of the melting transition. Turning to `Cc1ccc2ccc(NC(=O)OCCCN(CCCOC(=O)Nc3ccc4ccc(C)nc4n3)CCCOC(=O)Nc3ccc4ccc(C)nc4n3)nc2n1`, the results for the ΔTm in [1] and in experiment [2] were 22.9 °C and 1.6 °C, respectively. The result in [3] was inactive. Further, the outcome in [4] and in [5] was Active. Further, the midpoint of thermal melting (Tm) turned out to be 26.5 °C in [6]; 24.1 °C in experiment [7]; 24.9 °C in [8]; 34.7 °C in experiment [9]; 26.7 °C in experiment [10]; 27.1 °C in experiment [11].
In the case of `Cc1ccc2ccc(NC(=O)OCCCNCCCOC(=O)Nc3ccc4ccc(C)nc4n3)nc2n1`, the shift in melting temperature (ΔTm) in [1] stood at 23 °C; in experiment [2], 2 °C. Moreover, the Ka in [3] amounted to 2.09 ×10⁷ /M. Besides, the result in [12] and in [13] was Active.
